pEC50: −log10 of the molar value.
Tested on: ATF4 luciferase reporter in HEK293T cells
Assay: ATF4-Luc assay (in vitro model of VWMD)
Type: cell-based, human
Details: HEK293T cells carrying the ATF4 luciferase reporter, 1 μg/mL tunicamycin, One Glo luminescence
How it was run: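 Tunicamycin (1 μg/mL) stress with co-added compound for 7 hours in HEK293T cells stably carrying an ATF4 5′-UTR–luciferase reporter. EC50 values come from the luminescent signal (One Glo).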

Compound: O=C(NC12CC(n3cc(C(=S)N4CC[C@H](OC(F)(F)F)C4)cn3)(C1)C2)[C@H]1C[C@@H](O)c2cc(Cl)ccc2O1 [Compound 390, (2R,4R)-6-chloro-4-hydroxy-N-(3-{4-[(3S)-3-(trifluoromethoxy)pyrrolidine-1-carbothioyl]-1H-pyrazol-1-yl}bicyclo[1.1.1]pentan-1-yl)-3,4-dihydro-2H-1-benzopyran-2-carboxamide]
- pEC50 (Homo sapiens, HEK-293T, 7 h): > 8.00

Compound: O=C(CO[C@H]1C[C@@H](OC(F)(F)F)C1)NC12CC(NC(=O)[C@H]3C[C@H](O)c4cc(Cl)c(F)cc4O3)(C1)C2 [Compound 496, (2R,4S)-6-chloro-7-fluoro-4-hydroxy-N-[3-(2-{[(1s,3S)-3-(trifluoromethoxy)cyclobutyl]oxy}acetamido)bicyclo[1.1.1]pentan-1-yl]-3,4-dihydro-2H-1-benzopyran-2-carboxamide]
- pEC50 (Homo sapiens, HEK-293T, 7 h): > 8.00

Compound: Cn1nc(C23CC(NC(=O)COc4ccc(Cl)c(F)c4)(C2)C3)cc1O[C@H]1C[C@@H](OC(F)(F)F)C1 [Compound 345, 2-(4-chloro-3-fluorophenoxy)-N-[3-(1-methyl-5-{[cis-3-(trifluoromethoxy)cyclobutyl]oxy}-1H-pyrazol-3-yl)bicyclo[1.1.1]pentan-1-yl]acetamide]
- pEC50 (Homo sapiens, HEK-293T, 7 h): 6.60 to 7.30

Compound: O=C(NC12CC(n3cc(OCCCC(F)(F)F)cn3)(C1)C2)[C@H]1C[C@H](O)c2cc(C(F)(F)F)c(F)cc2O1 [Compound 642, (2R,4S)-7-fluoro-4-hydroxy-N-{3-[4-(4,4,4-trifluorobutoxy)-1H-pyrazol-1-yl]bicyclo[1.1.1]pentan-1-yl}-6-(trifluoromethyl)-3,4-dihydro-2H-1-benzopyran-2-carboxamide]
- pEC50 (Homo sapiens, HEK-293T, 7 h): 7.30 to 8.00

Compound: O=C(COc1ccc(Cl)c(F)c1)NC12CC(c3ccnc(OCCCOC(F)(F)F)c3)(C1)C2 [Compound 602, 2-(4-chloro-3-fluorophenoxy)-N-(3-{2-[3-(trifluoromethoxy)propoxy]pyridin-4-yl}bicyclo[1.1.1]pentan-1-yl)acetamide]
- pEC50 (7 hours): > 8.00

Compound: O=C(NC12CC(n3cc(-c4ccc(OC(F)(F)F)cn4)cn3)(C1)C2)[C@H]1C[C@@H](O)c2ccccc2O1 [Compound 367, (2R,4R)-4-hydroxy-N-(3-{4-[5-(trifluoromethoxy)pyridin-2-yl]-1H-pyrazol-1-yl}bicyclo[1.1.1]pentan-1-yl)-3,4-dihydro-2H-1-benzopyran-2-carboxamide]
- pEC50 (Homo sapiens, HEK-293T, 7 h): > 8.00

Compound: O=C(COc1ccc(C(F)(F)F)cc1O)NC12CC(n3cc([C@H]4C[C@@H](OC(F)(F)F)C4)nn3)(C1)C2 [Compound 615, 2-[2-hydroxy-4-(trifluoromethyl)phenoxy]-N-(3-{4-[(1s,3s)-3-(trifluoromethoxy)cyclobutyl]-1H-1,2,3-triazol-1-yl}bicyclo[1.1.1]pentan-1-yl)acetamide]
- pEC50 (Homo sapiens, HEK-293T, 7 h): 7.30 to 8.00

Compound: O=C(N[C@@H]1CC[C@@H](C(=O)N2CC(c3ccc(C(F)(F)F)cc3)C2)OC1)[C@H]1C[C@@H](O)c2cc(Cl)ccc2O1 [Compound 322, (2R,4R)-6-chloro-4-hydroxy-N-[(3R,6S)-6-{3-[4-(trifluoromethyl)phenyl]azetidine-1-carbonyl}oxan-3-yl]-3,4-dihydro-2H-1-benzopyran-2-carboxamide]
- pEC50 (Homo sapiens, HEK-293T, 7 h): > 8.00

Compound: O=C(NC12CC(n3cc(CCCC(F)(F)F)cn3)(C1)C2)[C@H]1C[C@@H](O)c2cc(Cl)c(F)cc2O1 [Compound 520, (2R,4R)-6-chloro-7-fluoro-4-hydroxy-N-{3-[4-(4,4,4-trifluorobutyl)-1H-pyrazol-1-yl]bicyclo[1.1.1]pentan-1-yl}-3,4-dihydro-2H-1-benzopyran-2-carboxamide]
- pEC50 (Homo sapiens, HEK-293T, 7 h): 7.30 to 8.00

Compound: O=C(CO[C@H]1C[C@@H](OC(F)(F)F)C1)NC12CCC(NC(=O)[C@H]3C[C@@H](O)c4cc(C(F)(F)F)c(F)cc4O3)(CC1)C[C@@H]2O [Compound 647, (2R,4R)-7-fluoro-4-hydroxy-N-[(3S)-3-hydroxy-4-(2-{[(1s,3R)-3-(trifluoromethoxy)cyclobutyl]oxy}acetamido)bicyclo[2.2.2]octan-1-yl]-6-(trifluoromethyl)-3,4-dihydro-2H-1-benzopyran-2-carboxamide]
- pEC50 (Homo sapiens, HEK-293T, 7 h): > 8.00

— US20250145594A1, “MODULATORS OF THE INTEGRATED STRESS PATHWAY” (Calico Life Sciences LLC, priority 2020, published 2025)
